Experimental data from US20240150306A1, “COMPOUNDS WITH CLEAVABLE DISULFIDE MOIETIES” (REINVIGORON THERATECH, INC., priority 2022, published 2024).

Experiments:
[1] = system: 4T1 murine breast cancer cells; assay: Cell viability / cytotoxicity detection (ONE-Glo+Tox); assay type: cell-based
Protocol: (§1) 4T1 murine breast cancer cells were seeded into white 96-well plate with the density of 1×10^4 cells per well. After 24 h, cells were replaced by 180 μL fresh RPMI 1640 medium (10% FBS), and 20 μL mRNA-Luc or Luc-pDNA encapsulated CLLM Nanoparticle formulations were added with fixed 100 ng mRNA or 200 ng pDNA per well. Free mRNA-Luc or Luc-pDNA were used as the control. Cells were further incubated for 24 h and ONE-Glo+Tox kits were used for mRNA expression and cytotoxicity detection based on the standard protocol.

[2] = system: 4T1 murine breast cancer cells; assay: In vitro luciferase expression (ONE-Glo+Tox); assay type: cell-based; settings: 100 ng mRNA or 200 ng pDNA per well, 24 h, FIGS. 11 and 12
Protocol: as §1

## CCCCCCCCCCCCCCOC(=O)CCN(CCSSCCN(C)C)CCC(=O)OCCCCCCCCCCCCCC [CLLM-2]
[1]; 100 ng mRNA in 200 uL medium per well, FIG. 11
  tolerability of drug delivery (mRNA nanoparticle formulations): tolerated
[1]; 200 ng pDNA in 200 uL medium per well, FIG. 12
  tolerability of drug delivery (pDNA nanoparticle formulations): tolerated
[2]
  luciferase expression / delivery of mRNA and pDNA into cells: can deliver mRNA and pDNA into cells
